Results: patent US20220000106A1, “HERBICIDAL COMPOSITIONS AND RELATED METHODS” (BELCHIM Crop Protection USA LLC, priority 2020, published 2022)

Tested on: various established weeds including Carolina False Dandelion, Hop Clover, White Clover, Annual Sedge, and Smooth Crabgrass
Assay: Field study of post-emergence weed control (overall percent weed control of combined weed species) in established Kentucky Tall Fescue
Type: in vivo
Settings: for efficacy of all weeds: eight days after treatment
Method: Field studies were conducted on a mixed stand of established Kentucky Tall Fescue containing various established weeds including but not limited to Carolina False Dandelion, Hop Clover, White Clover, Annual Sedge, and Smooth Crabgrass in Selma, N.C. The trial location was mowed weekly at a mowing height of three inches. The distribution of weeds was uniform throughout the study.
Individual treatment plots were applied on a 1×3 meter squared plot area. The experimental design was a randomized complete block with three replications. The applications were made with a carbon dioxide backpack sprayer equipped with 11003 nozzles with a spray pressure of 40 psi calibrated to deliver approximately 40 gallons per acre spray volume. All applications were applied on a single day. The wind speed was less than 10 mph at time of application.
Data were collected at 2, 4, 8, 13, 23 and 30 days after application of treatments, respectively. Data were collected as an estimate of overall percent weed control (efficacy) of combined weed species taking into consideration necrosis, chlorosis, and stunting of each weed species. The data were analyzed in ARM using the ANOVA and preforming the Duncan's New MRT test at P=0.05 (indicated by “a,” “b,” “c,”, etc.).
Glufosinate used in this trial was Surmise (2.34 lb/gal.) marketed by Albaugh LLC. Pelargonic Acid used in this trial was Beloukha Garden Herbicide (4.21 lb/gal.) marketed by Belchim Crop Protection USA.
The total percent weed control was calculated by comparing the individual treated plots and assessing individual weeds.

CCCCCCCCC(=O)O [Pelargonic Acid, nonanoic acid]
Percent Control (3.2 fluid oz/gal, 2 days after treatment): 6.7b %
Percent Control (3.2 fluid oz/gal, 4 days after treatment): 20.0c %
Percent Control (3.2 fluid oz/gal, 8 days after treatment): 40.0c %
Percent Control (3.2 fluid oz/gal, 13 days after treatment): 22.2d %
Percent Control (3.2 fluid oz/gal, 23 days after treatment): 20.0d %
Percent Control (3.2 fluid oz/gal, 30 days after treatment): 20.0c %
Percent Control (6.4 fluid oz/gal, 2 days after treatment): 40.0a %
Percent Control (6.4 fluid oz/gal, 2 days after treatment, listed as pelargonic acid): 40%
Percent Control (6.4 fluid oz/gal, 4 days after treatment): 50.0b %
Percent Control (6.4 fluid oz/gal, 8 days after treatment): 73.3b %
Percent Control (6.4 fluid oz/gal, 13 days after treatment): 66.7c %
Percent Control (6.4 fluid oz/gal, 23 days after treatment): 40.0c %
Percent Control (6.4 fluid oz/gal, 30 days after treatment): 23.2c %
efficacy of all weeds (pelargonic acid alone, both dose rates): 40% to 73

CP(=O)(O)CCC(N)C(=O)O (stereo not shown) [Glufosinate, 2-amino-4-[hydroxy(methyl)phosphoryl]butanoic acid]
Percent Control (0.5 fluid oz/gal, 2 days after treatment): 0.0b %
Percent Control (0.5 fluid oz/gal, 4 days after treatment): 20.0c %
Percent Control (0.5 fluid oz/gal, 8 days after treatment): 85.0ab %
Percent Control (0.5 fluid oz/gal, 13 days after treatment): 90.0b %
Percent Control (0.5 fluid oz/gal, 23 days after treatment): 85.2b %
Percent Control (0.5 fluid oz/gal, 30 days after treatment): 83.6b %
Percent Control (1.0 fluid oz/gal, 2 days after treatment): 0.0b %
Percent Control (1.0 fluid oz/gal, 4 days after treatment): 15.0cd %
Percent Control (1.0 fluid oz/gal, 8 days after treatment): 91.0a %
Percent Control (1.0 fluid oz/gal, 13 days after treatment): 90.7b %
Percent Control (1.0 fluid oz/gal, 23 days after treatment): 90.4b %
Percent Control (1.0 fluid oz/gal, 30 days after treatment): 95.0a %
Percent Control (2.0 fluid oz/gal, 2 days after treatment): 0.0b %
Percent Control (2.0 fluid oz/gal, 4 days after treatment): 15.0cd %
Percent Control (2.0 fluid oz/gal, 8 days after treatment): 94.3a %
Percent Control (2.0 fluid oz/gal, 13 days after treatment): 98.0a %
Percent Control (2.0 fluid oz/gal, 23 days after treatment): 99.1a %
Percent Control (2.0 fluid oz/gal, 30 days after treatment): 97.1a %
efficacy of all weeds (all glufosinate treatments at all dose rates): 85 to 94%
control of all weeds (efficacy) (glufosinate alone, all dose rates, 23 days after treatment): 85 to 99%
